Results from patent publication EP0981359B1, “COMPOSITIONS FOR ENHANCING IMMUNOSUPPRESSANTS' PHARMACOLOGICAL ACTIVITIES” (Zavialov, Vladimir Petrovich, priority 1997, dated 1998).

How the values were obtained:
human peripheral cells = experiment: mitogen (PHA)-driven proliferation, [3H]-thymidine incorporation; assay type: cell-based
Protocol: Ninety five ml of blood were taken from each of 10 volunteer donors, and 5 ml of 3-5% EDTA were added to the blood immediately and mixed carefully to prevent coagulation. The blood was than mixed with the equal volume of medium 199 or with buffered physiological salt solution. Ficoll-Paque (Pharmacia) was poured into plastic centrifuge test-tubes with caps (Costar) (3 ml of Ficoll-Paque per each test-tube, volume of a test-tube - 15 ml, diameter - 13 mm at room temperature, and then 6-7 ml of diluted blood were carefully layered on top). The test-tubes were centrifuged at 20 °C for 40 minutes, at 400 g, with the brake of centrifuge being switched off. The mononuclear cells formed a layer on the border of the liquid division and the cells were collected with a Pasteur pipette into a centrifuge test-tube with 5 ml of RPMI 1640, containing 2% of inactivated fetal serum and penicillin (100 units/ml) with streptomycin (100 units/ml). Then the cells were washed with physiological buffer solution (PBS) three times with centrifuging at 400 g for 5 minutes at the temperature of +8 °C. When the concentration of the cells was 2.5^·10^6 cells/ml, they were placed in RPMI 1640 medium, containing 5% of fetal serum (heated for 30 minutes at 56 °C), 100 units/ml of penicillin, 100 units/ml of streptomycin, 1 ml 200 mM of L-glutamine per 100 ml of serum. All the reagents were produced by Gibco. The cells were dropped into a 96-well plate (100 µl per each plate) with mitogen - phytohemagglutinin (PHA) (final concentration - […]), the preparations under study and immunosuppressants (cyclosporin A, FK506 or rapamycin) in concentration - […]) were pipetted into the tubes beforehand. The plate was placed in a CO2-incubator at 5% CO2 with humid atmosphere for 72 hours. 12-18 hours before the completion of the incubation […] of [^3H]-thymidine was added into each well. […] The number of disintegrations per minute was counted using a Minibeta counter (LKB). The stimulation index was determined by arithmetical mean of at least three parallel measurements ±SD to the corresponding control.

[1] = test system: human T-lymphoblastoid cell line MT-4; experiment: proliferation of IFN-sensitive T-lymphoblastoid cell line; assay type: cell-based; conditions: MT-4 cell line
[2] = molecular target: common receptors on mouse thymocytes; conditions: cited from earlier work

## α-peptoferon: octapeptide corresponding to the high-affinity binding/anti-lymphoproliferative site of hIFN-α2 (TMα1-like sequence 130-137) (LKEKKYSP; UniProt P01563 153-160, looked up, fragment)
Human peripheral cells; PHA, 72 hours, no immunosuppressant
  effect on mitogen (PHA)-driven proliferation (lymphoproliferative response): inhibited by rhIFN-α2 and a-peptoferon in a dose-dependent fashion
Human peripheral cells; PHA, no immunosuppressant
  effect on PHA-driven proliferation compared with rhIFN-α2: comparable effects
Human peripheral cells; in the presence of 20 mM CsA in cultural medium, rhIFN-α2 at 10^-16 M
  effect on PHA-driven proliferation in the presence of cyclosporin A: comparable effect
[1]
  effect on the proliferation of MT-4: inhibited by rhIFN-α2 and a-peptoferon in a dose-dependent fashion
  effect on the proliferation of MT-4 compared with rhIFN-α2: comparable effects
[2]; mouse thymocytes, read-out: Ki of recombinant (r)hIFN-α2 binding by α-peptoferon
  Ki: ~1 pM
[2]; previous studies
  affinity to the specific receptors in comparison with recombinant hIFN-α2: the same or higher affinity
